pIC50: −log10 of the molar value. Where a SMILES comes first, the peptide text is derived from it. Bridges are numbered along the chain shown (N, C = ends). [ ]: non-standard residue; d: D form. Bta = N[C@@H](Cc1csc2ccccc12)C(=O)O; Hyp = O=C(O)[C@@H]1C[C@@H](O)CN1; NMeNle = CCCC[C@H](NC)C(=O)O; NMeA = CN[C@@H](C)C(=O)O; Orn = NCCC[C@H](N)C(=O)O; Dab = NCC[C@H](N)C(=O)O; Sar = CNCC(=O)O
molecular target: PD-1-Ig binding to PD-L1-TVMV-His (PD-L1-His) (Homo sapiens (Human), UniProt Q9NZQ7); experiment: PD-1/PD-L1 Homogenous Time-Resolved Fluorescence (HTRF) binding assay (PD-1-Ig/PD-L1-His); details: PD-1-Ig (20 nM)/PD-L1-His (10 nM); numeric values
Text: Methods for Testing the Ability of Macrocyclic Compounds to Compete for the Binding of PD-1 to PD-L1 Using Homogenous Time-Resolved Fluorescence (HTRF) Binding Assays
The ability of the macrocyclic compounds of the present disclosure to bind to PD-L1 was investigated using a PD-1/PD-L1 Homogenous Time-Resolved Fluorescence (HTRF) binding assay.
Homogenous Time-Resolved Fluorescence (HTRF) Assays of Binding of Soluble PD-1 to Soluble PD-L1. Soluble PD-1 and soluble PD-L1 refers to proteins with carboxyl-end truncations that remove the transmembrane-spanning regions and are fused to heterologous sequences, specifically the Fc portion of the human immunoglobulin G sequence (Ig) or the hexahistidine epitope tag (His). All binding studies were performed in an HTRF assay buffer consisting of dPBS supplemented with 0.1% (w/v) bovine serum albumin and 0.05% (v/v) Tween-20. For the PD-1-Ig/PD-L1-His binding assay, inhibitors were pre-incubated with PD-L1-His (10 nM final) for 15 m in 4 μl of assay buffer, followed by addition of PD-1-Ig (20 nM final) in 1 μl of assay buffer and further incubation for 15 m. PD-L1 fusion proteins from either human, cynomologous macaques, mouse, or other species were used. HTRF detection was achieved using europium crypate-labeled anti-Ig monoclonal antibody (1 nM final) and allophycocyanin (APC) labeled anti-His monoclonal antibody (20 nM final). Antibodies were diluted in HTRF detection buffer and 5 μl was dispensed on top of binding reaction. […] Additional binding assays were established between PD-1-Ig/PD-L2-His (20 and 5 nM, respectively), CD80-His/PD-L1-Ig (100 and 10 nM, respectively) and CD80-His/CTLA4-Ig (10 and 5 nM, respectively).
Recombinant Proteins. […] Human PD-L2-His (Sino Biologicals), CD80-His (Sino Biologicals), CTLA4-Ig (RnD Systems) were all obtained through commercial sources.

PD-1-Ig binding to PD-L1-TVMV-His (PD-L1-His), sequence (Q9NZQ7 other isoform, or with tags, fused parts or gaps): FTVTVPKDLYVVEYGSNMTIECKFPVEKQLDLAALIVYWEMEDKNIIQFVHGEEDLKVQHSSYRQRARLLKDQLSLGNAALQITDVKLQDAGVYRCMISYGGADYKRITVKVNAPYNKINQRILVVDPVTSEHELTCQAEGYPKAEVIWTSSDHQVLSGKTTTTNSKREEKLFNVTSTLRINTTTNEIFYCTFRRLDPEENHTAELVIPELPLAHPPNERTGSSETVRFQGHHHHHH

| pIC50 | Compound |
| --- | --- |
| 7.85 | CCCC[C@H]1C(=O)N(C)[C@@H](CCCC)C(=O)N[C@H]2CCC(=O)NCCCC[C@H](NC(=O)[C@H](Cc3c[nH]c4ccccc34)NC(=O)[C@@H]3C[C@@H](O)CN3C(=O)[C@H](CCC(N)=O)NC(=O)[C@H](Cc3c[nH]cn3)NC(=O)[C@@H]3CCCN3C(=O)[C@H](CC(N)=O)NC(=O)[C@@H](C)NC(=O)[C@H](Cc3ccc(O)cc3)NC(=O)CSC[C@@H](C(=O)NCC(N)=O)NC2=O)C(=O)N[C@@H](Cc2c[nH]c3ccccc23)C(=O)N1C [Example 5007] ({CH2CO}-Y[dA]NPHQ[Hyp]WKW[NMeNle][NMeNle]ECG-NH2; lactam 9-13; thioether N-14) |
| 8.15 | CCCC[C@H]1C(=O)N(C)[C@@H](CCCC)C(=O)N[C@@H](C)C(=O)N[C@H](C(=O)NCC(N)=O)CSCC(=O)N[C@@H](Cc2ccc(O)cc2)C(=O)N(C)[C@@H](C)C(=O)N[C@H]2CCCNC(=O)CC[C@@H](NC(=O)[C@H](Cc3cn(C(=O)C(F)(F)F)cn3)NC(=O)[C@@H]3CCCC3C2=O)C(=O)N2C[C@H](O)C[C@H]2C(=O)N[C@@H](Cc2c[nH]c3ccccc23)C(=O)N[C@@H](CO)C(=O)N[C@@H](Cc2c[nH]c3ccccc23)C(=O)N1C (some centres unmarked) [Example 1403] |

same assay, conditions: PD-1-Ig (20 nM)/PD-L1-His (10 nM); range classes

| Compound | pIC50 |
| --- | --- |
| CCCC[C@H]1C(=O)N(C)[C@@H](CCCC)C(=O)N[C@@H](C)C(=O)N[C@H](C(=O)NCC(N)=O)CSCC(=O)N[C@@H](Cc2ccc(O)cc2)C(=O)N(C)[C@@H](C)C(=O)N[C@H]2CC(=O)NCCC[C@H](NC(=O)[C@H](Cc3cnc[nH]3)NC(=O)[C@@H]3CCCN3C2=O)C(=O)N2C[C@H](O)C[C@H]2C(=O)N[C@@H](Cc2c[nH]c3ccccc23)C(=O)N[C@@H](CO)C(=O)N[C@@H](Cc2c[nH]c3ccccc23)C(=O)N1C [Example 1508] ({CH2CO}-Y[NMeA]DPH[Orn][Hyp]WSW[NMeNle][NMeNle]ACG-NH2; lactam 3-6; thioether N-14) | 7.00 to 8.00 |
| CCCC[C@H]1C(=O)N(C)[C@@H](CCCC)C(=O)N[C@H]2CCC(=O)NCCCC[C@H](NC(=O)[C@H](Cc3c[nH]c4ccccc34)NC(=O)CN(C)C(=O)[C@H](CC(C)C)NC(=O)[C@H](Cc3c[nH]cn3)NC(=O)[C@@H]3CCCN3C(=O)[C@H](CC(N)=O)NC(=O)[C@H](C)N(C)C(=O)[C@H](Cc3ccccc3)NC(=O)CSC[C@@H](C(=O)NCC(N)=O)NC2=O)C(=O)N[C@@H](Cc2c[nH]c3ccccc23)C(=O)N1C [Example 5001] ({CH2CO}-F[NMeA]NPHL[Sar]WKW[NMeNle][NMeNle]ECG-NH2; lactam 9-13; thioether N-14) | 8.00 to 8.52 |
| CCCC[C@H]1C(=O)N(C)[C@@H](CCCC)C(=O)N[C@@H](C)C(=O)N[C@H]2CSCC(=O)N[C@@H](Cc3ccc(O)cc3)C(=O)N(C)[C@@H](C)C(=O)N[C@@H](CC(N)=O)C(=O)N3CCC[C@H]3C(=O)N[C@@H](Cc3cn(C(=O)C(F)(F)F)cn3)C(=O)N[C@@H](CC(C)C)C(=O)N[C@@H](CCCNC(=O)CNC2=O)C(=O)N[C@@H](Cc2c[nH]c3ccccc23)C(=O)N[C@@H](CO)C(=O)N[C@@H](Cc2c[nH]c3ccccc23)C(=O)N1C [Example 1401] | 7.00 to 8.00 |
| CCCC[C@H]1C(=O)N(C)[C@@H](CCCC)C(=O)N[C@@H](C)C(=O)N[C@H](C(=O)NCC(N)=O)CSCC(=O)N[C@@H](Cc2ccc(O)cc2)C(=O)N(C)[C@@H](C)C(=O)N[C@H]2CCC(=O)NCC[C@H](NC(=O)[C@H](Cc3cnc[nH]3)NC(=O)[C@@H]3CCCN3C2=O)C(=O)N2C[C@H](O)C[C@H]2C(=O)N[C@@H](Cc2c[nH]c3ccccc23)C(=O)N[C@@H](CO)C(=O)N[C@@H](Cc2c[nH]c3ccccc23)C(=O)N1C [Example 1501] ({CH2CO}-Y[NMeA]EPH[Dab][Hyp]WSW[NMeNle][NMeNle]ACG-NH2; lactam 3-6; thioether N-14) | 7.00 to 8.00 |
| CCCC[C@H]1C(=O)N(C)[C@@H](CCCC)C(=O)N[C@@H](CCC(N)=O)C(=O)N[C@H](C(=O)NCC(N)=O)CSCC(=O)N[C@@H](Cc2ccc(O)cc2)C(=O)N[C@H](C)C(=O)N[C@H]2CC(=O)NCCCC[C@H](NC(=O)[C@H](Cc3c[nH]cn3)NC(=O)[C@@H]3CCCN3C2=O)C(=O)N2C[C@H](O)C[C@H]2C(=O)N[C@@H](Cc2c[nH]c3ccccc23)C(=O)N[C@@H](CO)C(=O)N[C@@H](Cc2c[nH]c3ccccc23)C(=O)N1C [Example 5006] ({CH2CO}-Y[dA]DPHK[Hyp]WSW[NMeNle][NMeNle]QCG-NH2; lactam 3-6; thioether N-14) | 7.00 to 8.00 |

Further lines, results first:

| pIC50 | Compound |
| --- | --- |
| 8.00 to 8.52 | CCCC[C@H]1C(=O)N(C)[C@@H](CCCC)C(=O)N[C@H]2CCC(=O)NCCCC[C@H](NC(=O)[C@H](Cc3c[nH]c4ccccc34)NC(=O)[C@@H]3CCCN3C(=O)[C@H](CC(C)C)NC(=O)[C@H](Cc3c[nH]cn3)NC(=O)[C@@H]3CCCN3C(=O)[C@H](CC(N)=O)NC(=O)[C@H](C)N(C)C(=O)[C@H](Cc3ccc(O)cc3)NC(=O)CSC[C@@H](C(=O)NCC(N)=O)NC2=O)C(=O)N[C@@H](Cc2csc3ccccc23)C(=O)N1C [Example 5004] ({CH2CO}-Y[NMeA]NPHLPWK[Bta][NMeNle][NMeNle]ECG-NH2; lactam 9-13; thioether N-14) |
| 7.00 to 8.00 | CCCC[C@H]1C(=O)N(C)[C@@H](CCCC)C(=O)N[C@@H](C)C(=O)N[C@H](C(=O)NCC(N)=O)CSCC(=O)N[C@@H](Cc2ccc(O)cc2)C(=O)N(C)[C@@H](C)C(=O)N[C@H]2CC(=O)NCCCC[C@H](NC(=O)[C@H](Cc3cnc[nH]3)NC(=O)[C@@H]3CCCN3C2=O)C(=O)N2C[C@H](O)C[C@H]2C(=O)N[C@@H](Cc2c[nH]c3ccccc23)C(=O)N[C@@H](CO)C(=O)N[C@@H](Cc2c[nH]c3ccccc23)C(=O)N1C [Example 1507] ({CH2CO}-Y[NMeA]DPHK[Hyp]WSW[NMeNle][NMeNle]ACG-NH2; lactam 3-6; thioether N-14) |
| 7.00 to 8.00 | CCCC[C@H]1C(=O)N(C)[C@@H](CCCC)C(=O)N[C@H]2CCCC[C@H](NC(=O)[C@H](Cc3c[nH]c4ccccc34)NC(=O)[C@@H]3CCCN3C(=O)[C@H](CC(C)C)NC(=O)[C@H](Cc3cnc[nH]3)NC(=O)[C@@H]3CCCN3C(=O)[C@H](CC(N)=O)NC(=O)[C@H](C)N(C)C(=O)[C@H](Cc3ccc(O)cc3)NC(=O)CSC[C@@H](C(=O)NCC(N)=O)NC2=O)C(=O)N[C@@H](Cc2c[nH]c3ccccc23)C(=O)N1C [Example 7156] |
| 6.00 to 7.00 | CCCC[C@H]1C(=O)N(C)[C@@H](CCCC)C(=O)N[C@@H](CC(C)C)C(=O)N[C@H](C(=O)NCC(N)=O)CSCC(=O)N[C@@H](Cc2ccc(O)cc2)C(=O)N(C)[C@@H](C)C(=O)N[C@H]2CCC(=O)NCC[C@H](NC(=O)[C@@H]3CCCN3C2=O)C(=O)N[C@@H](CC(C)C)C(=O)N2CCC[C@H]2C(=O)N[C@@H](Cc2c[nH]c3ccccc23)C(=O)N[C@@H](CO)C(=O)N[C@@H](Cc2c[nH]c3ccccc23)C(=O)N1C [Example 10503] |

— patent US10143746B2, “Immunomodulators” (BRISTOL-MYERS SQUIBB COMPANY, priority 2016, dated 2018)
